Marks after values point to notes of the source that are not given here.
Legend:
Ret wt = biological target: T1, Ret wt (Homo sapiens, UniProt P07949); assay: Inhibition of kinase, Ret wt (HTRF KinEASE-TK); format: biochemical
T1 construct: purchased Carna 08-159-10 ug
Protocol: (§1) Ret wt (Carna, Cat. No. 08-159-10 ug), RET (V804M), Active (Signalchem. Cat. No. R02—12GG), HTRF KinEASE-TK kit (Cisbio, Cat. No.62TK0PEC), CEP-32496 (MCE, Cat. No. HY-15200), ATP (Sigma. Cat. No. A7699), DMSO (Sigma, Cat. No. D8418-1L), DTT (Sigma, Cat. No. D0632), MgCl2(Sigma, Cat. No. M1028), 384-well plate (Labcyte, Cat. No. P-05525-BC).
(§2) Formulation of compound: The test compounds were dissolved in DMSO to obtain 10 mM stock solutions, which were then serially diluted 3-fold in DMSO to obtain 10 concentrations. At the time of addition, the compound was further diluted 10-fold with buffer.
(§3) In 5×kinase buffer A, Ret wt or RET V804M kinase was mixed with different concentrations of compounds prepared by pre-dilution for 10 minutes. Each concentration was tested in duplicate. The corresponding substrate and ATP were added, and reaction was performed at room temperature for 20 minutes (negative and positive controls were provided: the negative control was a blank control, and the positive control was CEP-32496 (Agerafenib)). After completion of the reaction, detection reagents (reagents in the HTRF KinEASE-TK kit) were added. After incubating for 30 minutes at room temperature, enzyme activity in the presence of various concentrations of the compounds of the present disclosure was determined by Envision microplate reader, and inhibitory activity of different concentrations of the compounds on enzyme activity was calculated. The inhibitory activity of different concentrations of the compounds on enzyme activity was fitted by Graphpad 5.0 software, and the IC50 value was calculated.

[1] = Safety assay (body weight, tolerability) in Ba/F3 KIF5B-RET cell line tumor model; format: in vivo; conditions: for Number of animals at the beginning/end of assay: 10 mg/kg p.o. QD × 14; for Average weight g (x ± S), Day 0 of administration: 10 mg/kg p.o. QD × 14, day 0 (baseline); for Average weight g (x ± S), Day 14 of administration / Weight change rate (%), Day 14 of administration: 10 mg/kg p.o. QD × 14, day 14; for tolerability (weight loss, drug withdrawal, drug toxicity): during the treatment
Protocol: (§4) Assay methods: 1) Ba/F3 KIF5B-RET and Ba/F3 KIF5B-RET^G810R cells were respectively resuscitated and Cultured in vitro, and 3×10^7 cells of each type were obtained. 2) 60 female NPSG mice aged 6-8 weeks were adaptively bred for 1 week and then weighed. 4) After inoculation, tumor volume and body weight were measured once a week. When average tumor volume reached about […], mice inoculated with each type of Ba/F3 cells were randomly divided into 7 groups according to tumor volume and body weight, with 3 mice in each group. The administration was started immediately after grouping. The date of start of administration was regarded as day 0. Informations on administration and grouping were shown in Tables 5 and 6.5) After the start of the administration, the body weight and tumor volume of mice were measured twice a week. 6) After the end of the administration, the assay was over.
(§5) Assay observation and data collection: After tumor inoculation, morbidity and death of animals were observed every working day. Daily observation included tumor growth and effects of drugs on laboratory animals, such as changes in activity, changes in feeding and drinking, weight loss, changes in appearance of hair and eye, death and other clinical symptoms. Formula for calculating tumor volume is: tumor volume (mm^3)=½×(a×b^2) (wherein a represents the long diameter and b represents the short diameter)

[2] = test system: Ba/F3 KIF5B-RET^G810R cell line tumor model; assay: Anti-tumor effect assay in Ba/F3 KIF5B-RET^G810R cell line tumor model (allograft); format: in vivo, female NPSG mice; conditions: for Tumor volume (x ± S), Day 0 of administration / Tumor volume (x ± S), Day 13 of administration / TGI (%), Day 13 of administration: Ba/F3 KIF5B-RET^G810R model; for Tumor volume (x ± S), Day 0 of administration: 25 mg/kg p.o. QD × 13, day 0 (baseline); for Tumor volume (x ± S), Day 13 of administration / TGI (%), Day 13 of administration: 25 mg/kg p.o. QD × 13, day 13; for TGI (%), Day 13 of administration: TGI more than 100% = decrease in tumor volume; for relative tumor inhibition rate TGI (%): day 13 of administration, AD80 group 25 mg/kg
Excerpt: (§6) The efficacy of compounds of the present disclosure in female NPSG mouse allograft models of two B-cell lymphoma cell lines Ba/F3 KIF5B-RET and Ba/F3 KIF5B-RET^G810R was verified.
(§7) Assay animals: Female NPSG mice, 6-8 weeks old (age of mice at the time of tumor cell inoculation), weighing 18-20 g, 60 mice, purchased from Shanghai Jihui Laboratory Animal Care Co., Ltd.
as §4, §5
(§8) Relative tumor inhibition rate TGI (%): TGI %=(1−T/C)×100%. T/C % is relative tumor proliferation rate, that is, a percentage value of relative tumor volume between treatment group and control group at a certain point in time. T and C are relative tumor volume (RTV, that is, the […] tumor volume at this time point and tumor volume at day 0) of treatment group and control group at a certain point in time, respectively.
(§9) Statistical analysis: For pairwise comparison, a T-Test analysis method was used, and for comparison of three or more groups, a One-Way ANOVA method was used. For comparison of potential synergistic effects, a Two-way ANOVA was used. SPSS 24.0 was used for all data. A p value less than 0.05 was considered a significant difference.

[3] = Safety assay (body weight, tolerability) in Ba/F3 KIF5B-RET^G810R cell line tumor model; format: in vivo; conditions: for Number of animals at the beginning/end of assay: 25 mg/kg p.o. QD × 13; for Average weight g (x ± S), Day 0 of administration: 25 mg/kg p.o. QD × 13, day 0 (baseline); for Average weight g (x ± S), Day 13 of administration / Weight change rate (%), Day 13 of administration: 25 mg/kg p.o. QD × 13, day 13; for tolerability (weight loss, drug withdrawal, drug toxicity): during the treatment
Protocol: as §4, §5

[4] = test system: Ba/F3 KIF5B-RET cell line tumor model; assay: Anti-tumor effect assay in Ba/F3 KIF5B-RET cell line tumor model (allograft); format: in vivo, female NPSG mice; conditions: for Tumor volume (x ± S), Day 0 of administration: 10 mg/kg p.o. QD × 14, day 0 (baseline); for TGI (%), Day 14 of administration / Tumor volume (x ± S), Day 14 of administration: 10 mg/kg p.o. QD × 14, day 14
Excerpt: as §6, §7, §4, §5, §8, §9

RET V804M = biological target: T2, RET V804M (Homo sapiens, UniProt P07949, V804M); assay: Inhibition of kinase, RET V804M (HTRF KinEASE-TK); format: biochemical
T2 construct: purchased Signalchem R02—12GG
Protocol: as §1, §2, §3

T2 sequence (P07949 29-1114 V804M): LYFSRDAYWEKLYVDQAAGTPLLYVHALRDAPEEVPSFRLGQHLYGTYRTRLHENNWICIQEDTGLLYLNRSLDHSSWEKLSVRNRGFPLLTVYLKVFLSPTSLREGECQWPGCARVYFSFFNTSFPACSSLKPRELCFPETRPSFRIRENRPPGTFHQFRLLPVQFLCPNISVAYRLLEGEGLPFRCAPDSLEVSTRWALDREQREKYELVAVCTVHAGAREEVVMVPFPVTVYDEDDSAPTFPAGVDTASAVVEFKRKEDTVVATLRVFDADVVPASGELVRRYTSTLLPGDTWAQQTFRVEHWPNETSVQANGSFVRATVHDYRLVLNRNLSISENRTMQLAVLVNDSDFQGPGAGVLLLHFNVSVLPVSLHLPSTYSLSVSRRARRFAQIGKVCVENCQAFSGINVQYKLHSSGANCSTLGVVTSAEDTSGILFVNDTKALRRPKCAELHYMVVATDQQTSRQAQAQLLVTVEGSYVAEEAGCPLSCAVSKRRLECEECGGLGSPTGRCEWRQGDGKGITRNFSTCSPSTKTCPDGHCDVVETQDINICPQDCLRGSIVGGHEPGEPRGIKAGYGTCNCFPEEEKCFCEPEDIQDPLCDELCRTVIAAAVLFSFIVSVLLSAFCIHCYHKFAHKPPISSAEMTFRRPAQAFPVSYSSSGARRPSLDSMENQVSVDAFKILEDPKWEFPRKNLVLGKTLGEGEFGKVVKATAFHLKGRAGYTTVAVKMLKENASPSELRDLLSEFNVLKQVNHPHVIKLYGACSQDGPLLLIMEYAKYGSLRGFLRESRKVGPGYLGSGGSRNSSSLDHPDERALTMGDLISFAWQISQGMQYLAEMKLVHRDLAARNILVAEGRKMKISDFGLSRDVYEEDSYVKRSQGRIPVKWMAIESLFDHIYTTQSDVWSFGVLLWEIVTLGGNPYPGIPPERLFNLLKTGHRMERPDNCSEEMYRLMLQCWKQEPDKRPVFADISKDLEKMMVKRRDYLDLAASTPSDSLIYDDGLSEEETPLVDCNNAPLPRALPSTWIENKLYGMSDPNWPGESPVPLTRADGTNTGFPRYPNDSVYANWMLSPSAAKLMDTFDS
T1 sequence (P07949 29-1114): as the sequence (P07949 29-1114 V804M) above, with M776V counted along it

SMILES | IC50 (Ret wt) [nM] | Number of animals at the beginning/end of assay [1] | Average weight g (x ± S), Day 0 of administration [1] [g] | Average weight g (x ± S), Day 14 of administration [1] [g] | Weight change rate (%), Day 14 of administration [1] [%] | tolerability (weight loss, drug withdrawal, drug toxicity) [1] | Tumor volume (x ± S), Day 0 of administration [2] [mm^3] | Tumor volume (x ± S), Day 13 of administration [2] [mm^3] | TGI (%), Day 13 of administration [2] | relative tumor inhibition rate TGI (%) [2] [%] | Number of animals at the beginning/end of assay [3] | Average weight g (x ± S), Day 0 of administration [3] [g] | Average weight g (x ± S), Day 13 of administration [3] [g] | Weight change rate (%), Day 13 of administration [3] [%] | tolerability (weight loss, drug withdrawal, drug toxicity) [3] | Tumor volume (x ± S), Day 0 of administration [4] [mm^3] | TGI (%), Day 14 of administration [4] [%] | Tumor volume (x ± S), Day 14 of administration [4] [mm^3] | IC50 (RET V804M) [nM]
CC(C)n1nc(-c2ccc(CC(=O)Nc3cc(C(C)(C)C(F)(F)F)on3)cc2)c2c(N)ncnc21 [Compound T-1, 2-(4-(4-amino-1-isopropyl-1H-pyrazolo[3,4-d]pyrimidin-3-yl)phenyl)-N-(5-(1,1,1-trifluoro-2-methylprop-2-yl)isoxazol-3-yl)acetamide] | ≤ 0.5 | 3/3 | 20.9 ± 1.06 | 21.6 ± 1.05 | 3.4 | well tolerated | 98 ± 3.61 | 63.7 ± 16.19 | 109.4%# | 109.4 | 3/3 | 20.3 ± 1.32 | 21.3 ± 1.19 | 4.90 | well tolerated | 102.7 ± 6.06 | 90.3 | 233 ± 65.74 | ≤ 0.5
CC(C)n1nc(-c2ccc(NC(=O)Nc3cc(C(C)(C)C(F)(F)F)on3)cc2)c2c(N)ncnc21 [Compound T-2, 1-(4-(4-amino-1-isopropyl-1H-pyrazolo[3,4-d]pyrimidin-3-yl)phenyl)-3-(5-(1,1,1-trifluoro-2-methylprop-2-yl)isoxazol-3-yl)urea] | ≤ 0.5 | 3/3 | 20.1 ± 0.56 | 21.7 ± 0.59 | 8.1 | well tolerated | 94.3 ± 3.84 | 150.7 ± 4.33 | 84.6% | 84.6 | 3/3 | 19.6 ± 0.47 | 21.7 ± 0.74 | 11.05 | well tolerated | 102 ± 5.51 | 63.9 | 588.7 ± 25.3 | 1 to 10
CC(C)n1cc(-c2ccc(CC(=O)Nc3cc(C(C)(C)C(F)(F)F)on3)cc2)c2c(N)ncnc21 [Compound T-3, 2-(4-(4-amino-7-isopropyl-7H-pyrrolo[2,3-d]pyrimidin-5-yl)phenyl)-N-(5-(1,1,1-trifluoro-2-methylprop-2-yl)isoxazol-3-yl)acetamide] | ≤ 0.5 | 3/3 | 19.6 ± 0.84 | 21.5 ± 0.7 | 9.8 | well tolerated | 102 ± 7.77 | 132.7 ± 11.78 | 91.6% | 91.6 | 3/3 | 19.9 ± 1.18 | 23.1 ± 1.49 | 16.01 | well tolerated | 104 ± 10.44 | 96.3 | 153.7 ± 13.22 | 1 to 10
CC(C)n1nc(-c2ccc(CC(=O)Nc3cc(C(C)(C)C(F)(F)F)on3)c(F)c2)c2c(N)ncnc21 [Compound T-6, 2-(4-(4-amino-1-isopropyl-1H-pyrazolo[3,4-d]pyrimidin-3-yl)-2-fluorophenyl)-N-(5-(1,1,1-trifluoro-2-methylprop-2-yl)isoxazol-3-yl)acetamide] | ≤ 0.5 | 3/3 | 19.3 ± 0.57 | 21 ± 0.91 | 8.8 | well tolerated | 93 ± 8.33 | 89.7 ± 4.48 | 100.9%# | 100.9 | 3/3 | 19.4 ± 0.66 | 22.4 ± 0.46 | 15.75 | well tolerated | 104 ± 3.61 | 99.7 | 108.7 ± 31.33 | 0.5 to 1

Source: US20220380375A1, “SUBSTITUTED AROMATIC FUSED RING DERIVATIVE AND COMPOSITION COMPRISING SAME, AND USE THEREOF” (Shenzhen TargetRx, Inc., priority 2019, published 2022)
